One data set concerns maximal electroshock. The data set can be described thus: Anticonvulsive action, maximal electroshock (MES), mouse i.p. The format is in vivo. Conditions: for responders at 300 mg/kg / responders at 100 mg/kg: ip, read-out: Action, % of the protected animals. The method, then:
(§1) Compounds according to the present invention were tested in vivo for their anticonvulsive action as shown in Table 1 in mice by i.p. administration, or in rats administered orally according to the internationally customary standard (Pharmac. Weekblad, Sc.Ed. 14 132 (1992) and Antiepileptic Drugs, Third Ed., Raven Press, New York 1989). [table]

In another data set the test system is s.c. pentetrazole. Put plainly: Anticonvulsive action, s.c. pentetrazole (PTZ), mouse i.p. It counts as in vivo. The note with it: for responders at 300 mg/kg / responders at 100 mg/kg: ip, read-out: Action, % of the protected animals. On the procedure:
as §1

Data set [1] can be described thus: Octanol/water partition coefficient. Conditions: for logP: read-out: log P (octanol/water partition coefficient). It counts as physicochemical.
The next data set relates to Vogel Conflict Test. Put plainly: Vogel Conflict Test. The format is in vivo, rat. The note with it: for Changed number of impulses to the control in % / dose from which an anxiolytic action was detected / equally effective dose: rat; for dose from which an anxiolytic action was detected / equally effective dose: p.o. An excerpt:
In this model, continuous access to drinking water is withheld from rats for a certain time. After this period, free access is given to drinking water, but is coupled with a mild electrical stimulation. The conflict for the animals is between accepting the electrical stimulation or going without a drink.
The reactions to a conflict situation of this type are similar to the secondary phenomena of anxiety in man. The resulting avoidance reactions can be suppressed by anxiolytic substances. As a measure of the anxiolytic action, the number of tolerated current pulses of the animals treated with the test substance is assessed in comparison to the vehicle-treated control group.

Compound `COc1ccc(N2CC(N3CCOCC3)=CC2=O)cc1` [Compound 7, 1-(4-methoxyphenyl)-4-morpholin-4-yl-1,5-dihydropyrrol-2-one] returned a melting point of 198 to 202 °C. The responders at 300 mg/kg in the data set with maximal electroshock (dose 300 mg/kg) was found to be 0%. In the data set on s.c. pentetrazole (dose 300 mg/kg), the responders at 300 mg/kg came to 80%. Also, the logP in data set [1] turned out to be 0.74.
For the compound `CCN(CC)C1=CC(=O)N(c2ccc(Cl)cc2)C1` [Compound 23, 1-(4-chlorophenyl)-4-(diethylamino)-1,5-dihydropyrrol-2-one], the melting point fell in the range of 165 to 168 °C. In the data set on maximal electroshock (dose 300 mg/kg), the responders at 300 mg/kg was determined as 50%. Besides, in the data set on s.c. pentetrazole (dose 300 mg/kg), the responders at 300 mg/kg worked out at 66%.
Regarding `CN1CCN=C(c2ccccc2)c2cc(Cl)ccc21` [Medazepam, medazepam], the “anxiolytic action (in words)” value with Vogel Conflict Test (dose range from 0.3 to 3 mg/kg p.o.) is “not possible to detect”. For the same compound, the results for the “Changed number of impulses to the control in %” value (“Changed number … in %” below) in the data set on Vogel Conflict Test (0.3 mg/kg p.o.), in the data set with Vogel Conflict Test (1.0 mg/kg p.o.) and in the data set on Vogel Conflict Test (3 mg/kg p.o.) were 100%, 131% and 78%, respectively.
In the case of `CCCC(CCC)C(=O)O` [Valproate, reference compound], the responders at 100 mg/kg in the data set on maximal electroshock (dose 100 mg/kg) stood at 0%; with s.c. pentetrazole (dose 100 mg/kg), 30%.
The compound `Cc1ccc(N2CC(N3CCCCC3)=CC2=O)cc1` [Compound 15, 1-(4-methylphenyl)-4-piperidin-1-yl-1,5-dihydropyrrol-2-one] displayed a melting point of 174 to 177 °C. In the data set with maximal electroshock (dose 100 mg/kg), the responders at 100 mg/kg stood at 100%. In the data set with s.c. pentetrazole (dose 100 mg/kg), the responders at 100 mg/kg stood at 100%. For the same compound, the logP in data set [1] was found to be 2.62.
Turning to `O=C1C=C(N2CCCCC2)CN1c1ccc(F)cc1` [Compound 13, 1-(4-fluorophenyl)-4-piperidin-1-yl-1,5-dihydropyrrol-2-one], the melting point was in the range of 214 to 216 °C. In addition, in the data set with maximal electroshock (dose 300 mg/kg), the responders at 300 mg/kg turned out to be 0%. For the same compound, the responders at 300 mg/kg in the data set with s.c. pentetrazole (dose 300 mg/kg) is 0%. Moreover, the logP in data set [1] was 2.35.
`O=C1C=C(N2CCOCC2)CN1c1ccccc1Cl` [Compound 1, 1-(2-chlorophenyl)-4-morpholin-4-yl-1,5-dihydropyrrol-2-one]: the melting point lay within 154 to 156 °C. The responders at 100 mg/kg with maximal electroshock (dose 100 mg/kg) worked out at 0%. Further, the responders at 100 mg/kg in the data set on s.c. pentetrazole (dose 100 mg/kg) worked out at 0%. In addition, in the data set with Vogel Conflict Test, the “dose from which an anxiolytic action was detected / equally effective dose” value was found to be 3 mg/kg.
`O=C1CN=C(c2ccccc2Cl)c2cc([N+](=O)[O-])ccc2N1` [Clonazepam, clonazepam]: the results for the “Changed number … in %” value in the data set with Vogel Conflict Test (0.1 mg/kg p.o.), in the data set on Vogel Conflict Test (0.3 mg/kg p.o.) and in the data set with Vogel Conflict Test (1.0 mg/kg p.o.) were 122%, 128% and 173%, respectively. Besides, the “dose from which an anxiolytic action was detected / equally effective dose” value with Vogel Conflict Test was 1 mg/kg.
In the case of `O=C1C=C(N2CCCCC2)CN1c1ccc(Cl)cc1` [Compound 14, 1-(4-chlorophenyl)-4-piperidin-1-yl-1,5-dihydropyrrol-2-one], the responders at 100 mg/kg with maximal electroshock (dose 100 mg/kg) and in the data set on s.c. pentetrazole (dose 100 mg/kg) was 100% throughout. Besides, the logP in data set [1] came to 3.06.
Consider `O=C1C=C(N2CCCCC2)CN1c1ccc(F)c(Cl)c1` [Compound 16, 1-(3-chloro-4-fluorophenyl)-4-piperidin-1-yl-1,5-dihydropyrrol-2-one], for which the melting point lay within 195 to 196 °C. Also, the responders at 300 mg/kg in the data set on maximal electroshock (dose 300 mg/kg) is 100%. In addition, in the data set with s.c. pentetrazole (dose 300 mg/kg), the responders at 300 mg/kg turned out to be 0%.
Regarding `O=C1C=C(N2CCOCC2)CN1c1ccc(C(F)(F)F)cc1` [Compound 8, 4-morpholin-4-yl-1-(4-trifluoromethylphenyl)-1,5-dihydropyrrol-2-one], the melting point is 205 to 207 °C. Further, the responders at 100 mg/kg with maximal electroshock (dose 100 mg/kg) is 66%. Further, the responders at 100 mg/kg in the data set with s.c. pentetrazole (dose 100 mg/kg) was 100%.
Compound `O=C1C=C(N2CCOCC2)CN1c1ccc(Br)cc1` [Compound 5, 1-(4-bromophenyl)-4-morpholin-4-yl-1,5-dihydropyrrol-2-one] had a melting point of 230 to 233 °C. In the data set with maximal electroshock (dose 100 mg/kg), the responders at 100 mg/kg worked out at 33%. Besides, the responders at 100 mg/kg in the data set on s.c. pentetrazole (dose 100 mg/kg) came out at 100%. In data set [1], the logP amounted to 2.16.
In the case of `O=C1C=C(N2CCOCC2)CN1c1ccc(F)cc1` [Compound 3, 1-(4-fluorophenyl)-4-morpholin-4-yl-1,5-dihydropyrrol-2-one], the melting point lay in the range of 226 to 229 °C. Moreover, the responders at 100 mg/kg with maximal electroshock (dose 100 mg/kg) amounted to 50%. In the data set on s.c. pentetrazole (dose 100 mg/kg), the responders at 100 mg/kg was found to be 33%.
For the compound `CN1C(=O)CN=C(c2ccccc2)c2cc(Cl)ccc21` [Diazepam, diazepam], the “Changed number … in %” value in the data set on Vogel Conflict Test (0.1 mg/kg p.o.) was 94%; in the data set with Vogel Conflict Test (0.3 mg/kg p.o.), 114%; in the data set on Vogel Conflict Test (1.0 mg/kg p.o.), 148%; with Vogel Conflict Test (3 mg/kg p.o.) it was 167%.
Compound `COCCN(CCOC)C1=CC(=O)N(c2ccc(Cl)cc2)C1` [Compound 24, 1-(4-chlorophenyl)-4-(bis(methoxyethyl)amino)-1,5-dihydropyrrol-2-one] showed a melting point of 189 to 195 °C. Besides, the responders at 300 mg/kg in the data set with maximal electroshock (dose 300 mg/kg) stood at 33%. In the data set on s.c. pentetrazole (dose 300 mg/kg), the responders at 300 mg/kg was found to be 66%.
`CN1CCN(C2=CC(=O)N(c3ccc(Cl)cc3)C2)CC1` [Compound 21, 1-(4-chlorophenyl)-4-(4-methylpiperazin-1-yl)-1,5-dihydropyrrol-2-one] displayed a melting point of 194 to 197 °C. In addition, in the data set with maximal electroshock (dose 100 mg/kg), the responders at 100 mg/kg is 66%. Further, the responders at 100 mg/kg with s.c. pentetrazole (dose 100 mg/kg) is 100%.
Take `Cc1ccc(N2CC(N3CCOCC3)=CC2=O)cc1` [Compound 6, 1-(4-methylphenyl)-4-morpholin-4-yl-1,5-dihydropyrrol-2-one]: the responders at 300 mg/kg with maximal electroshock (dose 300 mg/kg) amounted to 100%. Besides, the responders at 100 mg/kg in the data set on s.c. pentetrazole (dose 100 mg/kg) is 100%. The logP in data set [1] stood at 1.42.
Compound `O=C1C=C(N2CCCC2)CN1c1ccc(Cl)cc1` [Compound 17, 1-(4-chlorophenyl)-4-pyrrolidin-1-yl-1,5-dihydropyrrol-2-one] yielded a melting point of 223 to 227 °C. For the same compound, the responders at 300 mg/kg in the data set on maximal electroshock (dose 300 mg/kg) amounted to 66%. The responders at 300 mg/kg in the data set on s.c. pentetrazole (dose 300 mg/kg) turned out to be 0%. Moreover, the logP in data set [1] was found to be 2.6.
Compound `CC1CCCCN1C1=CC(=O)N(c2ccc(Cl)cc2)C1` (stereo not shown) [Compound 20, 1-(4-chlorophenyl)-4-(2-methylpiperidin-1-yl)-1,5-dihydropyrrol-2-one] registered a melting point of 181 to 185 °C. The responders at 300 mg/kg in the data set with maximal electroshock (dose 300 mg/kg) was determined as 66%. For the same compound, in the data set on s.c. pentetrazole (dose 100 mg/kg), the responders at 100 mg/kg stood at 40%.
As for `O=C1C=C(N2CCOCC2)CN1c1ccc(F)c(Cl)c1` [Compound 10, 1-(3-chloro-4-fluorophenyl)-4-morpholin-4-yl-1,5-dihydropyrrol-2-one], the melting point lay in the range of 162 to 166 °C. For the same compound, the responders at 100 mg/kg in the data set on maximal electroshock (dose 100 mg/kg) amounted to 100%. The responders at 100 mg/kg in the data set on s.c. pentetrazole (dose 100 mg/kg) turned out to be 100%. In addition, the logP in data set [1] came to 2.19.
Consider `O=C1C=C(N2CCOCC2)CN1c1ccccc1` [Compound 25, 4-morpholin-4-yl-1-phenyl-1,5-dihydropyrrol-2-one], for which the melting point was in the range of 161 to 164 °C. Moreover, the responders at 100 mg/kg with maximal electroshock (dose 100 mg/kg) is 40%. For the same compound, the responders at 100 mg/kg with s.c. pentetrazole (dose 100 mg/kg) was 66%.
As for `Cc1cccc(N2CC(N3CCOCC3)=CC2=O)c1` [Compound 2, 1-(3-methylphenyl)-4-morpholin-4-yl-1,5-dihydropyrrol-2-one], the responders at 100 mg/kg with maximal electroshock (dose 100 mg/kg) stood at 33%. For the same compound, in the data set with s.c. pentetrazole (dose 300 mg/kg), the responders at 300 mg/kg is 100%. For the same compound, the logP in data set [1] turned out to be 1.46.
`Cc1cccc(N2CC(N3CCCCC3)=CC2=O)c1` [Compound 12, 1-(3-methylphenyl)-4-piperidin-1-yl-1,5-dihydropyrrol-2-one] registered a melting point of 117 to 123 °C. Besides, the responders at 300 mg/kg in the data set with maximal electroshock (dose 300 mg/kg) is 0%. Besides, the responders at 300 mg/kg with s.c. pentetrazole (dose 300 mg/kg) came to 0%. In addition, the logP in data set [1] turned out to be 2.66.
Compound `CC1CCCN(C2=CC(=O)N(c3ccc(Cl)cc3)C2)C1` (stereo not shown) [Compound 19, 1-(4-chlorophenyl)-4-(3-methylpiperidin-1-yl)-1,5-dihydropyrrol-2-one] yielded a melting point of 188 to 189 °C. In the data set with maximal electroshock (dose 300 mg/kg), the responders at 300 mg/kg stood at 0%. In addition, the responders at 100 mg/kg with s.c. pentetrazole (dose 100 mg/kg) was found to be 40%. The logP in data set [1] amounted to 3.58.
For the compound `NC(=O)N1c2ccccc2C=Cc2ccccc21` [Carbamazepin, reference compound], the “Action, % of the protected animals” value in the data set with maximal electroshock (dose 100 mg/kg) is listed as 100%; in the data set on s.c. pentetrazole (dose 100 mg/kg), 0%.
Compound `COc1cc(N2CC(N3CCOCC3)=CC2=O)cc(OC)c1OC` [Compound 11, 4-morpholin-4-yl-1-(3,4,5-trimethoxyphenyl)-1,5-dihydropyrrol-2-one] showed a melting point of 179 to 182 °C. Moreover, the responders at 300 mg/kg in the data set on maximal electroshock (dose 300 mg/kg) amounted to 0%. Further, the responders at 300 mg/kg in the data set with s.c. pentetrazole (dose 300 mg/kg) turned out to be 66%.
Turning to `O=C1C=C(N2CCCCCC2)CN1c1ccc(Cl)cc1` [Compound 22, 1-(4-chlorophenyl)-4-azepam-1-yl-1,5-dihydropyrrol-2-one], the “Action, % of the protected animals” value in the data set on maximal electroshock (dose 300 mg/kg) and in the data set on s.c. pentetrazole (dose 300 mg/kg) was 100% throughout. In addition, the “log P (octanol/water partition coefficient)” value in data set [1] is on record as 3.40.
As for `CC1CCN(C2=CC(=O)N(c3ccc(Cl)cc3)C2)CC1` [Compound 18, 1-(4-chlorophenyl)-4-(4-methylpiperidin-1-yl)-1,5-dihydropyrrol-2-one], the melting point lay within 194 to 196 °C. Moreover, the responders at 100 mg/kg in the data set on maximal electroshock (dose 100 mg/kg) was 66%. Besides, the responders at 100 mg/kg in the data set on s.c. pentetrazole (dose 100 mg/kg) was found to be 66%.

In general, melting point refers to the temperature, or range, at which the solid turns liquid.

The values above are taken from US6500821B1, “4-amino-1-aryl-1,5-dihydropyrrol-2-ones and process for making” (Arzneimittelwerk Dresden GmbH, priority 1999, dated 2002).
